Here are results for two molecules from patent US20240132525A1, “BORON […], CO[…], METHODS AND USES THEREOF” (priority 2022, published 2024).

Usually IC50 stands for the concentration at which inhibition is half-maximal. One may read the Cmax as the highest concentration seen after dosing. Broadly, the Tmax is the time at which the peak concentration occurs.

Data set [1] deals with JAK2 (Homo sapiens (Human), UniProt O60674). Put plainly: Biochemical kinase assay (33P-ATP filter-binding), JAK2. Conditions: Table 3a; read-out: IC50 JAK2. The text has this: (§1) Biochemical Kinase Assay Protocol (JAK)
Chain of JAK2 (O60674 whole entry, species assumed): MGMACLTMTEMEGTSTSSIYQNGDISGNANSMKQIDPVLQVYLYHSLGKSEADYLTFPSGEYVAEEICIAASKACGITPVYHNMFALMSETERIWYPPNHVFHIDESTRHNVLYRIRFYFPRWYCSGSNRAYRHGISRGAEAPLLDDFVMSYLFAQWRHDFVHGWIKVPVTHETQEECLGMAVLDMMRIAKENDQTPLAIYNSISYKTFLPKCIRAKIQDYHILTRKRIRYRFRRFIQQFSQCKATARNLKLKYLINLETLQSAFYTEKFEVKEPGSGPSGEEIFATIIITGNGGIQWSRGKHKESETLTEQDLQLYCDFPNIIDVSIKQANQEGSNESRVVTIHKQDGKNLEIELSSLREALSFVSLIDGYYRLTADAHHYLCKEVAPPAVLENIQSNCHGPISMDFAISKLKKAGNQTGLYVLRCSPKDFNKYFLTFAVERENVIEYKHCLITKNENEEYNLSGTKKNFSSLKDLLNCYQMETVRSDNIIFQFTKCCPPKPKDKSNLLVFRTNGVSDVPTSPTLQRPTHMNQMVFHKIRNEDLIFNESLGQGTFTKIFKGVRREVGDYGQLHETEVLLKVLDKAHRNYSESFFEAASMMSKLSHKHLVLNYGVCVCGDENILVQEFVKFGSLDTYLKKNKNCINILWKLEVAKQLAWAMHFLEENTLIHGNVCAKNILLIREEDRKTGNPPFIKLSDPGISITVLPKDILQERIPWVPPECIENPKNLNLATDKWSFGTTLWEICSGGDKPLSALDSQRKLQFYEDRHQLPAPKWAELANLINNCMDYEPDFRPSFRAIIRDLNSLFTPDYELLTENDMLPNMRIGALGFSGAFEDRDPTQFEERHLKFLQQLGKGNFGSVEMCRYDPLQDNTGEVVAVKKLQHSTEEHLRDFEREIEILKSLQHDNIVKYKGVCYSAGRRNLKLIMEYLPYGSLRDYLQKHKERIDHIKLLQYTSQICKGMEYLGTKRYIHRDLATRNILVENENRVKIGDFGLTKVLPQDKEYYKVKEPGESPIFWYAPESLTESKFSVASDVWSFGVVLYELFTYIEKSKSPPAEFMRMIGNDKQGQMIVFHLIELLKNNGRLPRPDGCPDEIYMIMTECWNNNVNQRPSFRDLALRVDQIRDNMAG
(§2) Reaction Procedure: • 1. […] Detected kinase activity by filter-binding method.

Data set [2] relates to IL-4/pSTAT6. Put plainly: Cytokine function assay IL-4/pSTAT6 in PBMC. Format: cell-based. The settings on record: PBMC, read-out: IC50 IL-4, Table 3a. The procedure:
(§3) Cytokine Function Assay Protocols for IL-4/pSTAT6 and GM-CSF/pSTAT5
IL-4/pSTAT6: • PBMC from a healthy donor was plated onto a 96 w plate. Compound was added and incubated for 1 hour (at 37° C.). After 1 hour, cells were stimulated with IL-4 for 15 minutes. Cells were fixed and stained with anti-pSTAT6 antibody. After staining, cells were read on a Beckman-Coulter CytoFLEX.

Data set [3] relates to GM-CSF/pSTAT5. The data set is described as follows: Cytokine function assay GM-CSF/pSTAT5 in lysed whole blood cells. In kind it is cell-based. Conditions: Whole blood cell, read-out: IC50 GM-CSF. On the procedure:
as §3
GM-CSF/pSTAT5: • Whole blood from a healthy donor was lysed to remove red blood cells. Cells were plated onto a 96 well plate. Compound was added and incubated for 1 hour (at 37° C.). After 1 hour, cells were stimulated with GM-CSF for 15 minutes. Cells were fixed and stained with anti-pSTAT5 antibody. After staining, cells were read on a Beckman-Coulter CytoFLEX.

Data set [4] concerns the target JAK1 (Homo sapiens (Human), UniProt P23458). The data set is described as follows: Biochemical kinase assay (33P-ATP filter-binding), JAK1. The settings on record: Table 3a; read-out: IC50 JAK1.
Excerpt: as §1, §2

Data set [5] concerns recombinant canine IL-31 induced pruritic behaviors. The data set is described as follows: IL-31 induced itch behavior in Beagle dogs. In kind it is in vivo. The settings on record: oral 1 mg/kg once daily for 5 days, IL-31 1.75 μg/kg i.v. on day 5. The procedure:
Ten healthy adult male Beagle dogs with no previous history of pruritus or skin disease were selected. […] Afterward, all dogs received repeated administration of oral solution and again intravenously recombinant canine IL-31 injections to assess inhibition of IL-31 induced itch behavior. (See, e.g., Gonzales, Vet. Dermatol. 2016, 27, 34-e10 and Pearson, Vet. Sci. 2023, 10, 369)
An oral solution of a representative compound of the present disclosure, Example 33a, at 1 mg/kg once daily in the morning for five (5) days, was administered to each dog in a crossover design for the five (5) consecutive days. All dogs were fasted during the oral administration and thirty minutes (30 min) post oral drug administration. On day 5, all dogs were administered a recombinant canine IL-31 intravenously at the dose of 1.75 μg/kg.

Data set [6] is described as follows: Pharmacokinetic profile after single oral administration in Beagle dogs. In kind it is in vivo. Conditions: male Beagle dogs, single oral dose about 1.0 mg/kg, fasted; for concentration at 48 h: read-out: Mean Clast. The procedure:
Summary of Pharmacokinetic (PK) profile
Three healthy male Beagle dogs were studied to determine a representative pharmacokinetic (PK) profile following a single oral administration of 1.0 mg/kg to each dog in a fasted state. Blood samples were collected at pre-dose, 0.25, 0.5, 1, 2, 4, 8, 24; 32, and 48 h post dose following oral administration (1 mg/mL in 10% Propylene glycol (PG), 45% PEG400, 7% Cremophor EL, 38% 50 mM citrate buffer pH 3.0 suspension or clear solution).

Data set [7] in a line: Dog LM (liver microsome) assay. In kind it is in vitro ADME. The settings on record: Table 3a; predicted clearance as percent of liver blood flow, 1 μM, 1 mg/ml microsomal protein. The essentials: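 Pooled Beagle liver microsomes (1 mg/ml protein), compound 1 μM, Tris pH 7.6 with 5 mM MgCl2, 37 °C, started with 1 mM NADPH; parent loss by LC-MS/MS over several time points.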

The test system of data set [8] is IL-31. The data set is described as follows: Cytokine function assay for IL-31 in DH82 cells. Conditions: Canis lupus familiaris, DH82; Table 3a; read-out: IC50 IL-31. Format: cell-based, canine. On the procedure: Cytokine Function Assay Protocol for IL-31
The protocol for the cytokine function assay for IL-31 is set forth below: • 1. […] After 24 hr, wash with 37° C. pre-warmed PBS (100 uL/well). • 3. Add serum-free MEM, 90 uL per well, 2 hr, 37° C. • 4. Add 10 uL 10×IL-31 (40, 10, 2.5 ug/mL) in duplicate, 5 min, 37° C. • 5. Remove medium, add 60 uL lysis buffer per well. Agitate on a plate shaker (˜350 rpm) for 10 min at RT. • 6. […] Add 6 uL Acceptor Mix, cover with aluminum foil, quickly spin at 1000 rpm, shake at 120 rpm for 2 min, then incubate at RT for 1 hr. • 8. Add 6 uL Donor Mix, cover with aluminum foil, quickly spin at 1000 rpm, shake at 120 rpm for 2 min, then incubate at RT for 1 hr. • 9. Measure the fluorescence using EnVision™ plate reader.

Chain of JAK1 (P23458 whole entry, species assumed): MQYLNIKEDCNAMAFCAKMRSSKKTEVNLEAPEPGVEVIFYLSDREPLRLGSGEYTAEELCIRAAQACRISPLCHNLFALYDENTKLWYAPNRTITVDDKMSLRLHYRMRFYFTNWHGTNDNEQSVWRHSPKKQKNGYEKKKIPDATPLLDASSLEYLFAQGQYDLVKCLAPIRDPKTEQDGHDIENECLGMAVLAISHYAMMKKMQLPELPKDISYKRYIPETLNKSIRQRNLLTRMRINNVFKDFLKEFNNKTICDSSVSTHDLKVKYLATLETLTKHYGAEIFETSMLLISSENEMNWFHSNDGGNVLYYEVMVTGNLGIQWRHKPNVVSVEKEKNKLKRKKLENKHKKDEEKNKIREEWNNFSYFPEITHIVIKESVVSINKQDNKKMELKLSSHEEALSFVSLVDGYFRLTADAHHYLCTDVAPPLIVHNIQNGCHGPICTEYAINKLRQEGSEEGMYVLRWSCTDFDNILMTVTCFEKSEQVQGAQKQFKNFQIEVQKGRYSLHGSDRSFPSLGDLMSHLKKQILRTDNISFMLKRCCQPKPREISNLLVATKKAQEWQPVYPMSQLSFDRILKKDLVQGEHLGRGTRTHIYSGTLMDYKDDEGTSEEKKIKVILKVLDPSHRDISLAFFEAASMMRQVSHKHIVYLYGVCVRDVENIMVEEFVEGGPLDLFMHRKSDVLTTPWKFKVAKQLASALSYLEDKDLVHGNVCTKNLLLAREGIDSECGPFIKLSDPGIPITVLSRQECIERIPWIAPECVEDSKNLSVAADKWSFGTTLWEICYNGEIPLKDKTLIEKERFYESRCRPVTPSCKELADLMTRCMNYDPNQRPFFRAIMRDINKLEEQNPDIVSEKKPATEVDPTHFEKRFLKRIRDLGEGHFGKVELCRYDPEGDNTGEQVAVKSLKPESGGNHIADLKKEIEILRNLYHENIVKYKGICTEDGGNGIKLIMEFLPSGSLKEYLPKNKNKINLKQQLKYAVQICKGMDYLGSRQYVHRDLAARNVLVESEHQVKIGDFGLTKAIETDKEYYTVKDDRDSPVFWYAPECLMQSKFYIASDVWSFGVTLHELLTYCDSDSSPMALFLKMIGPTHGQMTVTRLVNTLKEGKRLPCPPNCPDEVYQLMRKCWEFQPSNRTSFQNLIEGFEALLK

Consider `Cc1cnc(Nc2cc3c(c(C(F)(F)F)c2)B(O)OC3)nc1N[C@@H]1COCC[C@H]1C#N` (single isomer, unassigned) [Example 033a, (trans)-3-[[2-[[1-hydroxy-7-(trifluoromethyl)-3H-2,1-benzoxaborol-5-yl]amino]-5-methyl-pyrimidin-4-yl]amino]tetrahydropyran-4-carbonitrile], for which the IC50 in data set [1] is 8.1 nM; in data set [2], 136 nM; in data set [3] it was 1700 nM; in data set [4], 0.4 nM; in data set [8] it was 19.1 nM. Besides, in data set [5], the “anti-pruritic effect compared to IL-31 baseline/alone” value is “significant anti-pruritic effect”. For the same molecule, the highest concentration (Cmax) in data set [6] (dog, in vivo) is 279 ng/mL. In addition, the AUC(0-inf) in data set [6] (dog, in vivo, read-out: Mean AUCINF_obs) was found to be 2560 ng·h/mL. Further, the AUC(0-t) in data set [6] (dog, in vivo, read-out: Mean AUClast) amounted to 2460 ng·h/mL. Further, the concentration at 48 h in data set [6] (dog, in vivo) was determined as 4.74 ng/mL. For the same molecule, the half-life in data set [6] (dog, in vivo, read-out: Mean T1/2 (converted)) is 14.6 h. For the same molecule, in data set [6] (dog, in vivo, read-out: Median Tmax), the time of peak concentration (Tmax) turned out to be 1 h. The “Median Tlast” value in data set [6] is listed as 48 h. Besides, the “Dog LM QH” value in data set [7] is reported as less than 19.9%.

As for `Cc1cnc(Nc2cc(Cl)c3c(c2)COB3O)nc1N[C@@H]1COCC[C@H]1C#N` (single isomer, unassigned) [Example 031b, (trans)-3-((2-((7-chloro-1-hydroxy-1,3-dihydrobenzo[c][1,2]oxaborol-5-yl)amino)-5-methylpyrimidin-4-yl)amino)tetrahydro-2H-pyran-4-carbonitrile], in data set [6] (dog, in vivo), the concentration at 48 h is 7.98 ng/mL. Moreover, the “Median Tlast” value in data set [6] was determined as 48 h. The “Dog LM QH” value in data set [7] is reported as less than 19.9%.
